Results reported in US6914122B2 (priority 2000, dated 2005).
*1 amine or outer side, *2 acyl side, *3 side chain or, on linkers, in order; H or OH if unused. Where a SMILES comes first, the peptide text is derived from it. Bridges are numbered along the chain shown (N, C = ends). [ ]: non-standard residue; d: D form. The star is where a group is joined. ξ: configuration not given here. Phe(3-(CH2)7CO) = O=C([C@H](Cc1cccc(CCCCCCCC(=O)[*:3])c1)N[*:1])[*:2]; Heptanedioyl = O=C(CCCCCC(=O)[*:2])[*:1]; Azelaoyl = O=C(CCCCCCCC(=O)[*:2])[*:1]; Suberoyl = O=C(CCCCCCC(=O)[*:2])[*:1]; Adipoyl = O=C(CCCCC(=O)[*:2])[*:1]; Glutaryl = O=C(CCCC(=O)[*:2])[*:1]; X1 = CCCC(N[*:1])C(=O)C(=O)[*:2]; Chg = N[C@H](C(=O)O)C1CCCCC1; Phg = N[C@H](C(=O)O)c1ccccc1; Suc = O=C(CCC(=O)[*:2])[*:1]; ξChg = NC(C(=O)O)C1CCCCC1; OtBu = CC(C)(C)O*

The compounds below were run against Recombinant heterodimeric HCV NS3/NS4A protease (strain 1a) (Hepatitis C virus genotype 1a, UniProt P27958) (assay: biochemical).
Sequence of Recombinant heterodimeric HCV NS3/NS4A protease (strain 1a) (P27958 1027-1657 limits assumed): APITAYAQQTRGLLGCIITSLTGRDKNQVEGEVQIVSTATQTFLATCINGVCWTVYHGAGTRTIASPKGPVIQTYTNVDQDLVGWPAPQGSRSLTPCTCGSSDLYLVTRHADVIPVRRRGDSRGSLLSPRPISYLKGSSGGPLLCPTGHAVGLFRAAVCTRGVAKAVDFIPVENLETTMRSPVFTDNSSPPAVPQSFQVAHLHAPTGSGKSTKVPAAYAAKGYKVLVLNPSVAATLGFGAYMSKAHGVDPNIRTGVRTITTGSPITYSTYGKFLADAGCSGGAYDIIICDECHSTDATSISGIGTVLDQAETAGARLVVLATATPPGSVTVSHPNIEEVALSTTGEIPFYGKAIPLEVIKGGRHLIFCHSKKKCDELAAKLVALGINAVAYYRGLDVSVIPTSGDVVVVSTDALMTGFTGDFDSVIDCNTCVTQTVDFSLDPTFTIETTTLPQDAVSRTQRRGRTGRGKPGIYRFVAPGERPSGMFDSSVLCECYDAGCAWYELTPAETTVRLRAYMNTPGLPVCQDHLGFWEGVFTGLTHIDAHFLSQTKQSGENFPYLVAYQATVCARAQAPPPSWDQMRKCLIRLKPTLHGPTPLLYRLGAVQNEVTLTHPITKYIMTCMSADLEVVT
Sequence of Recombinant heterodimeric HCV NS3/NS4A protease (strain 1a) (P27958 1658-1711 partner limits assumed): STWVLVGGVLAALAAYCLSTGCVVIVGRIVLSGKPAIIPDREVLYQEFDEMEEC
Parameters: species or system HCV (strain 1a)

Row | Compound | Ki [µM]
1 | CCCC(NC(=O)C1Cc2cccc(c2)Oc2ccc(cc2)CCC(=O)NC(C2CCCCC2)C(=O)N1)C(=O)C(=O)NCC(=O)NC(C(=O)O)c1ccccc1 (centres unmarked) [Example 2] | 0.001 to 1
2 | CCCC(NC(=O)C1Cc2cccc(c2)Oc2ccc(cc2)CCC(=O)NC(C2CCCCC2)C(=O)N1)C(=O)C(=O)NCC(=O)OC(C)(C)C (centres unmarked) [Example 3] | 1.1 to 100
3 | CCCC(NC(=O)C1Cc2cccc(c2)Oc2ccc(cc2)CCC(=O)NC(C2CCCCC2)C(=O)N1)C(=O)C(=O)NCC(=O)O (centres unmarked) [Example 4] | 1.1 to 100
4 | CCCC(NC(=O)C1Cc2cccc(c2)Oc2ccc(cc2)CCCC(=O)NC(C2CCCCC2)C(=O)N1)C(=O)C(=O)NCC(=O)NC(C(=O)O)c1ccccc1 (centres unmarked) [Example 6] | 0.001 to 1
5 | CCCC(NC(=O)C1Cc2cccc(c2)Oc2ccc(cc2)CCCCC(=O)NC(C2CCCCC2)C(=O)N1)C(=O)C(=O)NCC(=O)NC(C(=O)OC(C)(C)C)c1ccccc1 (centres unmarked) [Example 7] | 1.1 to 100
6 | CCCC(NC(=O)C1Cc2cccc(c2)Oc2ccc(cc2)CCCCC(=O)NC(C2CCCCC2)C(=O)N1)C(=O)C(=O)NCC(=O)NC(C(=O)O)c1ccccc1 (centres unmarked) [Example 8] | 0.001 to 1
7 | CCCC(NC(=O)C1Cc2cccc(c2)Oc2ccc(cc2)CCC(=O)NCC(=O)N1)C(=O)C(=O)NCC(=O)NC(C(=O)O)c1ccccc1 (centres unmarked) [Example 10] | 1.1 to 100
8 | CCCC(NC(=O)[C@@H]1Cc2cccc(c2)OCCCCCCC(=O)N[C@@H](C2CCCCC2)C(=O)N1)C(=O)C(=O)NCC(=O)N[C@H](C(=O)OC(C)(C)C)c1ccccc1 (some centres unmarked) [Example 11] | 1.1 to 100
9 | CCCC(NC(=O)[C@@H]1Cc2cccc(c2)OCCCCCCC(=O)N[C@@H](C2CCCCC2)C(=O)N1)C(=O)C(=O)NCC(=O)N[C@H](C(=O)O)c1ccccc1 (some centres unmarked) [Example 12] | 0.001 to 1
10 | CCCC(NC(=O)[C@@H]1Cc2cccc(c2)OCCCCCC(=O)N[C@@H](C2CCCCC2)C(=O)N1)C(=O)C(=O)NCC(=O)N[C@H](C(=O)OC(C)(C)C)c1ccccc1 (some centres unmarked) [Example 13] | 1.1 to 100
11 | CCCC(NC(=O)[C@@H]1Cc2cccc(c2)OCCCCCC(=O)N[C@@H](C2CCCCC2)C(=O)N1)C(=O)C(=O)NCC(=O)N[C@H](C(=O)O)c1ccccc1 (some centres unmarked) [Example 14] | 1.1 to 100
12 | CCCC(NC(=O)[C@@H]1Cc2cccc(c2)C=CCCCCCC(=O)N[C@@H](C2CCCCC2)C(=O)N1)C(=O)C(=O)NCC(=O)N[C@H](C(=O)OC(C)(C)C)c1ccccc1 (some centres unmarked) [Example 15] | 1.1 to 100
13 | CCCC(NC(=O)[C@@H]1Cc2cccc(c2)C=CCCCCCC(=O)N[C@@H](C2CCCCC2)C(=O)N1)C(=O)C(=O)NCC(=O)N[C@H](C(=O)O)c1ccccc1 (some centres unmarked) [Example 16] | 0.001 to 1
14 | CCCC(NC(=O)[C@@H]1Cc2cccc(c2)CCCCCCCC(=O)N[C@@H](C2CCCCC2)C(=O)N1)C(=O)C(=O)NCC(=O)N[C@H](C(=O)OC(C)(C)C)c1ccccc1 (some centres unmarked) [Example 17] ([Chg][Phe(3-(CH2)7CO)][X1]G[Phg]-OtBu; lactam N-2) | 1.1 to 100
15 | CCCC(NC(=O)[C@@H]1Cc2cccc(c2)CCCCCCCC(=O)N[C@@H](C2CCCCC2)C(=O)N1)C(=O)C(=O)NCC(=O)N[C@H](C(=O)O)c1ccccc1 (some centres unmarked) [Example 18] ([Chg][Phe(3-(CH2)7CO)][X1]G[Phg]-OH; lactam N-2) | 0.001 to 1
16 | CCCC(NC(=O)[C@@H]1Cc2cccc(c2)OCCCCCNC(=O)N[C@@H](C2CCCCC2)C(=O)N1)C(=O)C(=O)NCC(=O)N[C@H](C(=O)OC(C)(C)C)c1ccccc1 (some centres unmarked) [Example 19] | 1.1 to 100
17 | CCCC(NC(=O)[C@@H]1Cc2cccc(c2)OCCCCCNC(=O)N[C@@H](C2CCCCC2)C(=O)N1)C(=O)C(=O)NCC(=O)N[C@H](C(=O)O)c1ccccc1 (some centres unmarked) [Example 20] | 0.001 to 1
18 | CCCC(NC(=O)[C@@H]1Cc2cccc(c2)OCCCCCCOC(=O)N[C@@H](C2CCCCC2)C(=O)N1)C(=O)C(=O)NCC(=O)N[C@H](C(=O)O)c1ccccc1 (some centres unmarked) [Example 22] | 0.001 to 1
19 | CCCC(NC(=O)C1Cc2cn(cn2)CCCCCCCC(=O)NC(C2CCCCC2)C(=O)N1)C(=O)C(=O)NCC(=O)NC(C(=O)OC(C)(C)C)c1ccccc1 (centres unmarked) [Example 23] | 1.1 to 100
20 | CCCC(NC(=O)[C@@H]1Cc2cn(cn2)CCCCCCCC(=O)N[C@@H](C2CCCCC2)C(=O)N1)C(=O)C(=O)NCC(=O)N[C@H](C(=O)O)c1ccccc1 (some centres unmarked) [Example 24] | 1.1 to 100
21 | CCCC(NC(=O)C1Cc2cccc(c2)Oc2ccc(cc2)CC(NC(=O)OC(C)(C)C)C(=O)NC(C2CCCCC2)C(=O)N1)C(=O)C(=O)NCC(=O)O (centres unmarked) [Example 28] | 1.1 to 100
22 | CCCC(NC(=O)C1Cc2cccc(c2)Oc2ccc(cc2)CC(NC(C)=O)C(=O)NC(C2CCCCC2)C(=O)N1)C(=O)C(=O)NCC(=O)NC(C(=O)OC(C)(C)C)c1ccccc1 (centres unmarked) [Example 29] | 1.1 to 100

Row | Compound | Ki [µM]
23 | CCCC(NC(=O)[C@@H]1Cc2cccc(c2)Oc2ccc(cc2)CC(NC(C)=O)C(=O)N[C@@H](C2CCCCC2)C(=O)N1)C(=O)C(=O)NCC(=O)N[C@H](C(=O)O)c1ccccc1 (some centres unmarked) [Example 30] | 0.001 to 1
24 | CCCC(NC(=O)C1Cc2cccc(c2)Oc2ccc(cc2)CC(NC(C)=O)C(=O)NC(C2CCCCC2)C(=O)N1)C(=O)C(=O)NCC(=O)OC(C)(C)C (centres unmarked) [Example 31] | 1.1 to 100
25 | CCCC(NC(=O)[C@@H]1Cc2cccc(c2)Oc2ccc(cc2)CC(NC(C)=O)C(=O)N[C@@H](C2CCCCC2)C(=O)N1)C(=O)C(=O)NCC(=O)O (some centres unmarked) [Example 32] | 1.1 to 100
26 | CCCC(NC(=O)C1Cc2cccc(c2)Oc2ccc(cc2)CCC(=O)NC(C2CCCCC2)C(=O)O1)C(=O)C(=O)NCC(=O)NC(C(=O)OC(C)(C)C)c1ccccc1 (centres unmarked) [Example 33] | 1.1 to 100
27 | CCCC(NC(=O)C1Cc2cccc(c2)Oc2ccc(cc2)CCC(=O)NC(C2CCCCC2)C(=O)O1)C(=O)C(=O)NCC(=O)NC(C(=O)O)c1ccccc1 (centres unmarked) [Example 34] | 1.1 to 100
28 | CCCC(NC(=O)[C@H]1Cc2cccc(c2)Oc2ccc(cc2)CCC(=O)N[C@@H](C2CCCCC2)C(=O)O1)C(=O)C(=O)NCC(=O)N[C@H](C(=O)OC(C)(C)C)c1ccccc1 (some centres unmarked) [Example 37] | 1.1 to 100
29 | CCCC(NC(=O)[C@H]1Cc2cccc(c2)Oc2ccc(cc2)CCC(=O)N[C@@H](C2CCCCC2)C(=O)O1)C(=O)C(=O)NCC(=O)N[C@H](C(=O)O)c1ccccc1 (some centres unmarked) [Example 38] | 1.1 to 100
30 | CCCC(NC(=O)C1Cc2cccc(c2)OCCCCCCOC(=O)NC(C2CCCCC2)C(=O)N1)C(=O)C(=O)NCC(=O)N[C@H](C(=O)N(C)C)c1ccccc1 (some centres unmarked) [Example 39] | 0.001 to 1
31 | CCCC(NC(=O)[C@@H]1CCCCNC(=O)CCCC(=O)NC(C2CCCCC2)C(=O)N1)C(=O)C(=O)NCC(=O)N[C@H](C(N)=O)c1ccccc1 (some centres unmarked) [Example 40] ([ξChg]K[X1]G[Phg]-NH2; linker N-2 via Glutaryl) | 1.1 to 100
32 | CCCC(NC(=O)[C@@H]1CCCCNC(=O)CCCCCCC(=O)N[C@@H](C2CCCCC2)C(=O)N1)C(=O)C(=O)NCC(=O)N[C@H](C(N)=O)c1ccccc1 (some centres unmarked) [Example 41] ([Chg]K[X1]G[Phg]-NH2; linker N-2 via Suberoyl) | 0.001 to 1
33 | CCCC(NC(=O)[C@@H]1CCCCNC(=O)CCCCCCCC(=O)N[C@@H](C2CCCCC2)C(=O)N1)C(=O)C(=O)NCC(=O)N[C@H](C(N)=O)c1ccccc1 (some centres unmarked) [Example 42] ([Chg]K[X1]G[Phg]-NH2; linker N-2 via Azelaoyl) | 1.1 to 100
34 | CCCC(NC(=O)[C@@H]1CCCCNC(=O)Cc2cccc(c2)CC(=O)N[C@@H](C2CCCCC2)C(=O)N1)C(=O)C(=O)NCC(=O)N[C@H](C(N)=O)c1ccccc1 (some centres unmarked) [Example 43] | 0.001 to 1
35 | CCCC(NC(=O)[C@@H]1CCCCNC(=O)Cc2ccc(cc2)CC(=O)N[C@@H](C2CCCCC2)C(=O)N1)C(=O)C(=O)NCC(=O)N[C@H](C(N)=O)c1ccccc1 (some centres unmarked) [Example 44] | 0.001 to 1
36 | CCCC(NC(=O)[C@@H]1CCCCNC(=O)CCC(=O)N[C@H](CC(=O)O)C(=O)N[C@@H](C2CCCCC2)C(=O)N1)C(=O)C(=O)NCC(=O)N[C@H](C(N)=O)c1ccccc1 (some centres unmarked) [Example 45] ([dD][Chg]K[X1]G[Phg]-NH2; linker N-3 via Suc) | 1.1 to 100
37 | CCCC(NC(=O)[C@@H]1CCCCNC(=O)CCCC(=O)N[C@H](CC(=O)O)C(=O)N[C@@H](C2CCCCC2)C(=O)N1)C(=O)C(=O)NCC(=O)N[C@H](C(N)=O)c1ccccc1 (some centres unmarked) [Example 46] ([dD][Chg]K[X1]G[Phg]-NH2; linker N-3 via Glutaryl) | 1.1 to 100
38 | CCCC(NC(=O)[C@@H]1CCCCNC(=O)CCC(=O)N[C@H](CCC(=O)O)C(=O)N[C@@H](C2CCCCC2)C(=O)N1)C(=O)C(=O)NCC(=O)N[C@H](C(N)=O)c1ccccc1 (some centres unmarked) [Example 47] ([dE][Chg]K[X1]G[Phg]-NH2; linker N-3 via Suc) | 1.1 to 100
39 | CCCC(NC(=O)[C@@H]1CCCCNC(=O)CCCC(=O)N[C@H](CCC(=O)O)C(=O)N[C@@H](C2CCCCC2)C(=O)N1)C(=O)C(=O)NCC(=O)N[C@H](C(N)=O)c1ccccc1 (some centres unmarked) [Example 48] ([dE][Chg]K[X1]G[Phg]-NH2; linker N-3 via Glutaryl) | 1.1 to 100
40 | CCCC(NC(=O)[C@@H]1CCCCNC(=O)CCC(=O)NCC(=O)N[C@@H](C2CCCCC2)C(=O)N1)C(=O)C(=O)NCC(=O)N[C@H](C(N)=O)c1ccccc1 (some centres unmarked) [Example 49] (G[Chg]K[X1]G[Phg]-NH2; linker N-3 via Suc) | 1.1 to 100
41 | CCCC(NC(=O)[C@@H]1CCCCNC(=O)CCCC(=O)NCC(=O)N[C@@H](C2CCCCC2)C(=O)N1)C(=O)C(=O)NCC(=O)N[C@H](C(N)=O)c1ccccc1 (some centres unmarked) [Example 50] (G[Chg]K[X1]G[Phg]-NH2; linker N-3 via Glutaryl) | 1.1 to 100
42 | CCCC(NC(=O)[C@@H]1CCCCNC(=O)CCC(=O)N[C@@H](C2CCCCC2)C(=O)N1)C(=O)C(=O)NCC(=O)N[C@H](C(N)=O)c1ccccc1 (some centres unmarked) [Example 51] ([Chg]K[X1]G[Phg]-NH2; linker N-2 via Suc) | 1.1 to 100
43 | CCCC(NC(=O)[C@@H]1CCCCNC(=O)CCCCC(=O)N[C@@H](C2CCCCC2)C(=O)N1)C(=O)C(=O)NCC(=O)N[C@H](C(N)=O)c1ccccc1 (some centres unmarked) [Example 52] ([Chg]K[X1]G[Phg]-NH2; linker N-2 via Adipoyl) | 0.001 to 1
44 | CCCC(NC(=O)[C@@H]1CCCCNC(=O)CCCCCC(=O)N[C@@H](C2CCCCC2)C(=O)N1)C(=O)C(=O)NCC(=O)N[C@H](C(N)=O)c1ccccc1 (some centres unmarked) [Example 53] ([Chg]K[X1]G[Phg]-NH2; linker N-2 via Heptanedioyl) | 0.001 to 1
